molecular target: T1, Cdc7 (BEV coexpressed huCDC7/DBF4) (Homo sapiens, UniProt O00311); assay: Cdc7 enzyme inhibition assay ([33P]ATP, biotinylated peptide substrate, FlashPlate); type: biochemical; conditions: not given
T1 construct: made in house; host or cells: BEV (baculovirus expression vector) co-expression; insect cells are implied but no cell line is named
Protocol: Cdc7 (BEV coexpressed huCDC7/DBF4) is prepared internally. Cdc7 assays are conducted as follows with final concentrations as listed. […] Reactions are quenched after 1 hr by the addition of 90 μL stop buffer (50 mM EDTA, 2M NaCl). […] (Ki) for exemplary compounds.

T1 sequence (O00311 whole entry): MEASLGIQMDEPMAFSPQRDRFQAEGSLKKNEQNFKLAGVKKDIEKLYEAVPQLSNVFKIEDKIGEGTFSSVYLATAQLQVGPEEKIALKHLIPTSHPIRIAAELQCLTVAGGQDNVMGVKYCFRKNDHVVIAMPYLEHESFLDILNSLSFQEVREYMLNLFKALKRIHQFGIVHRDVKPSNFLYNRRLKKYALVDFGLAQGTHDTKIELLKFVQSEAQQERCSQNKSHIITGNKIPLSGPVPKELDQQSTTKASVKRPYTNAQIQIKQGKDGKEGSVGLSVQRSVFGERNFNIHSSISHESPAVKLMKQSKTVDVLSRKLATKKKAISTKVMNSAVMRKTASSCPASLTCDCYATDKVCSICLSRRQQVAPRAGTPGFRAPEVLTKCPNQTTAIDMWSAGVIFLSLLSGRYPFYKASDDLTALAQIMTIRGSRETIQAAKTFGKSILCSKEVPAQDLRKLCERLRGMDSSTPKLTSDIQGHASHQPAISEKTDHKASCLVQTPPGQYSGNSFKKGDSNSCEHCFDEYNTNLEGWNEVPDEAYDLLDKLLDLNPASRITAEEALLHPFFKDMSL
T1 sequence (Q9UBU7 whole entry partner): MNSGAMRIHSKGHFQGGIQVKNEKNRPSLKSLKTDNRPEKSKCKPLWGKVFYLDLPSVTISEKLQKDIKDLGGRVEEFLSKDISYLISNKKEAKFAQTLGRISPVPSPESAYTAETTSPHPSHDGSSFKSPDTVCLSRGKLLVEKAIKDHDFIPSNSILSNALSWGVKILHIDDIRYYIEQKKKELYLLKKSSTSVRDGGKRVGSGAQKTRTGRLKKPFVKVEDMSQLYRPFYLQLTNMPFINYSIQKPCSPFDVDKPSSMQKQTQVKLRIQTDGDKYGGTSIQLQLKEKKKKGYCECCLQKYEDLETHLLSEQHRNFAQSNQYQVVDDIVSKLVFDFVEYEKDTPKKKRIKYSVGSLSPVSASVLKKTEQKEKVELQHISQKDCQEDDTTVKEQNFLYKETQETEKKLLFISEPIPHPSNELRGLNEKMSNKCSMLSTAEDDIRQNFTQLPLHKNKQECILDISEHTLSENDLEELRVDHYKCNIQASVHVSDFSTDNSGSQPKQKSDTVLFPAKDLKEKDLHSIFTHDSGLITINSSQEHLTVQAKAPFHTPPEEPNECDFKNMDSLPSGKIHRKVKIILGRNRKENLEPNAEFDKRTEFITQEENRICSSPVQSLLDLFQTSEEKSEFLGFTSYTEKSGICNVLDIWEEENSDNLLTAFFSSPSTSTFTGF

| SMILES | Ki |
| --- | --- |
| Clc1cc(-c2c[nH]c3ncccc23)cc(NCC2CCCOC2)n1 (stereo not drawn) [Example 28, 6-chloro-4-(1H-pyrrolo[2,3-b]pyridin-3-yl)-N-(tetrahydro-2H-pyran-3-ylmethyl)pyridin-2-amine] | 10 to 100 nM |
| Clc1cc(-c2c[nH]c3ncccc23)cc(NCC2CCNC2)n1 (stereo not drawn) [Example 29, 6-chloro-N-(pyrrolidin-3-ylmethyl)-4-(1H-pyrrolo[2,3-b]pyridin-3-yl)pyridin-2-amine] | < 10 nM |
| Cc1cccc(CNc2cc(-c3c[nH]c4ncccc34)cc(Cl)n2)c1C [Example 30, 6-chloro-N-(2,3-dimethylbenzyl)-4-(1H-pyrrolo[2,3-b]pyridin-3-yl)pyridin-2-amine] | 10 to 100 nM |
| Clc1cc(-c2c[nH]c3ncccc23)cc(NCc2ccncc2)n1 [Example 31, 6-chloro-N-(pyridin-4-ylmethyl)-4-(1H-pyrrolo[2,3-b]pyridin-3-yl)pyridin-2-amine] | 10 to 100 nM |
| Clc1cc(-c2c[nH]c3ncccc23)cc(NCC2CCCCO2)n1 (stereo not drawn) [Example 32, 6-chloro-4-(1H-pyrrolo[2,3-b]pyridin-3-yl)-N-(tetrahydro-2H-pyran-2-ylmethyl)pyridin-2-amine] | 10 to 100 nM |
| Clc1cc(-c2c[nH]c3ncccc23)cc(NC2CCNCC2)n1 [Example 33, 6-chloro-N-piperidin-4-yl-4-(1H-pyrrolo[2,3-b]pyridin-3-yl)pyridin-2-amine] | 10 to 100 nM |
| COC1CCC(Nc2cc(-c3c[nH]c4ncccc34)cc(Cl)n2)CC1 (stereo not drawn) [Example 34, 6-chloro-N-(4-methoxycyclohexyl)-4-(1H-pyrrolo[2,3-b]pyridin-3-yl)pyridin-2-amine] | 10 to 100 nM |
| CC(=O)NC1CCCC(Nc2cc(-c3c[nH]c4ncccc34)cc(Cl)n2)C1 (stereo not drawn) [Example 35, N-(3-{[6-chloro-4-(1H-pyrrolo[2,3-b]pyridin-3-yl)pyridin-2-yl]amino}cyclohexyl)acetamide] | 10 to 100 nM |
| Fc1cc(Cl)ccc1CNc1cc(-c2c[nH]c3ncccc23)cc(Cl)n1 [Example 36, 6-chloro-N-(4-chloro-2-fluorobenzyl)-4-(1H-pyrrolo[2,3-b]pyridin-3-yl)pyridin-2-amine] | 10 to 100 nM |
| Clc1cc(-c2c[nH]c3ncccc23)cc(NCc2cccnc2Oc2cccnc2)n1 [Example 37, 6-chloro-N-{[2-(pyridin-3-yloxy)pyridin-3-yl]methyl}-4-(1H-pyrrolo[2,3-b]pyridin-3-yl)pyridin-2-amine] | 10 to 100 nM |
| Clc1cc(-c2c[nH]c3ncccc23)cc(NCC2CCCNC2)n1 (stereo not drawn) [Example 38, 6-chloro-N-(piperidin-3-ylmethyl)-4-(1H-pyrrolo[2,3-b]pyridin-3-yl)pyridin-2-amine] | 10 to 100 nM |
| CC(O)CNc1cc(-c2c[nH]c3ncccc23)cc(Cl)n1 (stereo not drawn) [Example 39, 1-{[6-chloro-4-(1H-pyrrolo[2,3-b]pyridin-3-yl)pyridin-2-yl]amino}propan-2-ol] | 10 to 100 nM |
| CC(C)(CO)CNc1cc(-c2c[nH]c3ncccc23)cc(Cl)n1 [Example 40, 3-{[6-chloro-4-(1H-pyrrolo[2,3-b]pyridin-3-yl)pyridin-2-yl]amino}-2,2-dimethylpropan-1-ol] | 10 to 100 nM |
| OCCOCCNc1cc(-c2c[nH]c3ncccc23)cc(Cl)n1 [Example 41, 2-(2-{[6-chloro-4-(1H-pyrrolo[2,3-b]pyridin-3-yl)pyridin-2-yl]amino}ethoxy)ethanol] | 10 to 100 nM |
| N[C@H]1CC[C@H](Nc2nc(Cl)cc(-c3c[nH]c4ncccc34)n2)CC1 [Example 42, trans-N-[4-chloro-6-(1H-pyrrolo[2,3-b]pyridin-3-yl)pyrimidin-2-yl]cyclohexane-1,4-diamine] | < 10 nM |
| O[C@H]1CC[C@H](Nc2nc(Cl)cc(-c3c[nH]c4ncccc34)n2)CC1 [Example 44, Trans-4-{[4-chloro-6-(1H-pyrrolo[2,3-b]pyridin-3-yl)pyrimidin-2-yl]amino}cyclohexanol] | < 10 nM |
| Clc1cc(-c2c[nH]c3ncccc23)nc(NCc2ccccc2)n1 [Example 46, N-benzyl-4-chloro-6-(1H-pyrrolo[2,3-b]pyridin-3-yl)pyrimidin-2-amine] | 10 to 100 nM |
| OCC(Cc1ccccc1)Nc1nc(Cl)cc(-c2c[nH]c3ncccc23)n1 (stereo not drawn) [Example 47, 2-{[4-chloro-6-(1H-pyrrolo[2,3-b]pyridin-3-yl)pyrimidin-2-yl]amino}-3-phenylpropan-1-ol] | 10 to 100 nM |
| COC[C@H](Cc1ccccc1)Nc1nc(Cl)cc(-c2c[nH]c3ncccc23)n1 [Example 48, (S)-4-chloro-N-(1-methoxy-3-phenylpropan-2-yl)-6-(1H-pyrrolo[2,3-b]pyridine-3-yl)pyrimidin-2-amine] | 10 to 100 nM |
| Clc1cc(-c2c[nH]c3ncccc23)nc(NC2CCCCC2)n1 [Example 49, 4-chloro-N-cyclohexyl-6-(1H-pyrrolo[2,3-b]pyridin-3-yl)pyrimidin-2-amine] | < 10 nM |

same assay, conditions: Table 3; enzyme inhibition data (Ki)

| SMILES | Ki |
| --- | --- |
| CS(=O)(=O)N1CCC(Nc2cc(-c3c[nH]c4ncccc34)cc(Cl)n2)CC1 [Example 51, 6-chloro-N-[1-(methylsulfonyl)piperidin-4-yl]-4-(1H-pyrrolo[2,3-b]pyridin 3-yl)pyridin-2-amine] | < 10 nM |
| O=S(=O)(NC1CCC(Nc2cc(-c3c[nH]c4ncccc34)cc(Cl)n2)CC1)c1ccccc1 (stereo not drawn) [Example 52, N-(4-{[6-chloro-4-(1H-pyrrolo[2,3-b]pyridin-3-yl)pyridin-2-yl]amino}cyclohexyl)benzenesulfonamide] | < 10 nM |
| O=S(=O)(Cc1ccccc1)NC1CCC(Nc2cc(-c3c[nH]c4ncccc34)cc(Cl)n2)CC1 (stereo not drawn) [Example 53, N-(4-{[6-chloro-4-(1H-pyrrolo[2,3-b]pyridin-3-yl)pyridin-2-yl]amino}cyclohexyl)-1-phenylmethanesulfonamide] | < 10 nM |
| O=S(=O)(NC1CCC(Nc2cc(-c3c[nH]c4ncccc34)cc(Cl)n2)CC1)c1cccnc1 (stereo not drawn) [Example 54, N-(4-{[6-chloro-4-(1H-pyrrolo[2,3-b]pyridin-3-yl)pyridin-2-yl]amino}cyclohexyl)pyridine-3-sulfonamide] | < 10 nM |
| CCCS(=O)(=O)NC1CCC(Nc2cc(-c3c[nH]c4ncccc34)cc(Cl)n2)CC1 (stereo not drawn) [Example 55, N-(4-{[6-chloro-4-(1H-pyrrolo[2,3-b]pyridin-3-yl)pyridin-2-yl]amino}cyclohexyl)propane-1-sulfonamide] | < 10 nM |
| Clc1cc(-c2c[nH]c3ncccc23)cc(NCCN2CCOCC2)n1 [Example 56, 6-chloro-N-[2-(morpholin-4-yl)ethyl]-4-(1H-pyrrolo[2,3-b]pyridin-3-yl)pyridin-2-amine] | < 10 nM |
| Oc1cccc(CCNc2cc(-c3c[nH]c4ncccc34)cc(Cl)n2)c1 [Example 57, 3-(2-{[6-chloro-4-(1H-pyrrolo[2,3-b]pyridin-3-yl)pyridin-2-yl]amino}ethyl)phenol] | < 10 nM |
| CC(C)CNC1CCCC(Nc2cc(-c3c[nH]c4ncccc34)cc(Cl)n2)C1 (stereo not drawn) [Example 58, N-[6-chloro-4-(1H-pyrrolo[2,3-b]pyridin-3-yl)pyridin-2-yl]-N′-(2-methylpropyl)cyclohexane-1,3-diamine] | < 10 nM |
| CN(C)C1CCCC(Nc2cc(-c3c[nH]c4ncccc34)cc(Cl)n2)C1 (stereo not drawn) [Example 59, N′-[6-chloro-4-(1H-pyrrolo[2,3-b]pyridin-3-yl)pyridin-2-yl]-N,N-dimethylcyclohexane-1,3-diamine] | < 10 nM |
| O=C(NC1CCCC1)NC1CCC(Nc2cc(-c3c[nH]c4ncccc34)cc(Cl)n2)CC1 (stereo not drawn) [Example 60, 1-(4-{[6-chloro-4-(1H-pyrrolo[2,3-b]pyridin-3-yl)pyridin-2-yl]amino}cyclohexyl)-3-cyclopentylurea] | < 10 nM |
| O=S(=O)(N[C@H]1CC[C@H](Nc2cc(-c3c[nH]c4ncccc34)cc(Cl)n2)CC1)C1CC1 [Example 61, N-(trans-4-{[6-chloro-4-(1H-pyrrolo[2,3-b]pyridin-3-yl)pyridin-2-yl]amino}cyclohexyl)cyclopropanesulfonamide] | < 10 nM |
| CCCNC(=O)NC1CCC(Nc2cc(-c3c[nH]c4ncccc34)cc(Cl)n2)CC1 (stereo not drawn) [Example 62, 1-(4-{[6-chloro-4-(1H-pyrrolo[2,3-b]pyridin-3-yl)pyridin-2-yl]amino}cyclohexyl)-3-propylurea] | < 10 nM |
| O=C(N[C@H]1CC[C@H](Nc2cc(-c3c[nH]c4ncccc34)cc(Cl)n2)CC1)C1CC1 [Example 63, N-(trans-4-{[6-chloro-4-(1H-pyrrolo[2,3-b]pyridin-3-yl)pyridin-2-yl]amino}cyclohexyl)cyclopropanecarboxamide] | < 10 nM |
| CC(C)C(=O)NC1CCC(Nc2cc(-c3c[nH]c4ncccc34)cc(Cl)n2)CC1 (stereo not drawn) [Example 64, N-(4-{[6-chloro-4-(1H-pyrrolo[2,3-b]pyridin-3-yl)pyridin-2-yl]amino}cyclohexyl)-2-methylpropanamide] | < 10 nM |
| O=C(NC1CCC(Nc2cc(-c3c[nH]c4ncccc34)cc(Cl)n2)CC1)c1ccccc1 (stereo not drawn) [Example 65, N-(4-{[6-chloro-4-(1H-pyrrolo[2,3-b]pyridin-3-yl)pyridin-2-yl]amino}cyclohexyl)benzamide] | < 10 nM |
| O=C(Nc1ccccc1)NC1CCC(Nc2cc(-c3c[nH]c4ncccc34)cc(Cl)n2)CC1 (stereo not drawn) [Example 66, 1-(4-{[6-chloro-4-(1H-pyrrolo[2,3-b]pyridin-3-yl)pyridin-2-yl]amino}cyclohexyl)-3-phenylurea] | < 10 nM |
| Clc1cc(-c2c[nH]c3ncccc23)cc(NC2CCCC(NCc3cccnc3)C2)n1 (stereo not drawn) [Example 67, N-[6-chloro-4-(1H-pyrrolo[2,3-b]pyridin-3-yl)pyridin-2-yl]-N′-(pyridin-3-ylmethyl)cyclohexane-1,3-diamine] | < 10 nM |
| Clc1cc(-c2c[nH]c3ncccc23)cc(NC2CCCC(NC3CCC3)C2)n1 (stereo not drawn) [Example 68, N-[6-chloro-4-(1H-pyrrolo[2,3-b]pyridin-3-yl)pyridin-2-yl]-1-N′-cyclobutylcyclohexane-1,3-diamine] | < 10 nM |
| O=C(NC1CCCC(Nc2cc(-c3c[nH]c4ncccc34)cc(Cl)n2)C1)C1CC1 (stereo not drawn) [Example 69, N-(3-{[6-chloro-4-(1H-pyrrolo[2,3-b]pyridin-3-yl)pyridin-2-yl]amino}cyclohexyl)cyclopropanecarboxamide] | < 10 nM |

From patent US8435980B2 (AbbVie Inc., priority 2009, dated 2013)
